Experimental data from patent publication US9776972B2, “Pyrazole derivatives as arginine methyltransferase inhibitors and uses thereof” (priority 2013, dated 2017).
pIC50: −log10 of the molar value. Where two headings read alike, the source gives them in different places.

What was measured:
[1] = biological target: T1, human PRMT6 (Homo sapiens, UniProt Q96LA8); assay: PRMT6 Biochemical Assay (3H-SAM Flashplate, peptide substrate)
T1 construct: Flag-PRMT6-His; made in house; host or cells: HEK 293F cells (BacMam baculovirus)
Summary of the method: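 Flag-PRMT6-His, expressed in mammalian cells from a BacMam vector, was preincubated with compound for 30 min at room temperature in Bicine pH 7.6 buffer with TCEP, BSG and Tween 20. Reactions were started with ³H-SAM and a biotinylated histone H4 36-50 peptide, then stopped with cold SAM (400 uM final). Labeled peptide was captured on streptavidin Flashplates, counted, and fitted to a 3- or 4-parameter curve.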

[2] = biological target: T2, human PRMT1 (Homo sapiens, UniProt Q99873); assay: PRMT1 Biochemical Assay (3H-SAM Flashplate, peptide substrate); details: single experiment or average of multiple experiments
T2 construct: GST-tagged PRMT1; made in house; host or cells: High Five insect cells (baculovirus)
Summary of the method: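 GST-tagged PRMT1 from baculovirus-infected cells, preincubated with compounds 30 min at room temperature in 20 mM Bicine pH 7.6, 1 mM TCEP, 0.005% BSG, 0.002% Tween 20. Reaction started with ³H-SAM plus biotinylated peptide, stopped with 300 µM cold SAM.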

[3] = Biochemical IC50 PRMT6, single experiment or average of multiple experiments
[4] = single experiment or average of multiple experiments, read-out: Biochemical IC50 PRMT6

T1 sequence (Q96LA8 with tags, fused parts or gaps): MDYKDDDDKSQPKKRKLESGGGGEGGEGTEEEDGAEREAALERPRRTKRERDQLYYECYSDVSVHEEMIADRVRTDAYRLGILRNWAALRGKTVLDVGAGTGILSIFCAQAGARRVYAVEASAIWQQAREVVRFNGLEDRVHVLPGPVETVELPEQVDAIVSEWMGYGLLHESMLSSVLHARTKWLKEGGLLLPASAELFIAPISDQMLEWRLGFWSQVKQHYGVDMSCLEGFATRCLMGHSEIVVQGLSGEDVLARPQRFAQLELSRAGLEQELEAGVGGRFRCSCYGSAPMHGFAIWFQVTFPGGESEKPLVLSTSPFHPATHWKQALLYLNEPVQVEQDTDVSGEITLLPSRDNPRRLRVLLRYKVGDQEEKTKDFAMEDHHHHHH
T2 sequence (Q99873 with tags, fused parts or gaps): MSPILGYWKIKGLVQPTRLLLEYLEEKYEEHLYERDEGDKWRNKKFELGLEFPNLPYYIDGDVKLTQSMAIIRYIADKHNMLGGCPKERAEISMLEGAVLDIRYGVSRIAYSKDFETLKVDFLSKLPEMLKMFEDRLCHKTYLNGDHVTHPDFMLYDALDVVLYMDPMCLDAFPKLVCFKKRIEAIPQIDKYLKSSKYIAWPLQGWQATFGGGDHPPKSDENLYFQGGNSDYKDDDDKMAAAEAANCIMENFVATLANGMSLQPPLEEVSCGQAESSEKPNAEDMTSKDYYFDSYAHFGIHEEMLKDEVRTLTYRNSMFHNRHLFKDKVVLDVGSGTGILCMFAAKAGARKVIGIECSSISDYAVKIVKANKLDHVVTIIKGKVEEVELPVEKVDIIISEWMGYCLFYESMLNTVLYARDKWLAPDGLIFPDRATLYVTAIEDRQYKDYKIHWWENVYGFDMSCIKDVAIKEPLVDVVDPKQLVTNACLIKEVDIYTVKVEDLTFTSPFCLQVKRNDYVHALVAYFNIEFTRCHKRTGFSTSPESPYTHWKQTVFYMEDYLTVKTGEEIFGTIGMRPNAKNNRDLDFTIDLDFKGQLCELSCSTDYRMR

Row | SMILES | pIC50 [1, 3] | pIC50 [2] | pIC50 [1, 4]
1 | CNCCN(C)Cc1c[nH]nc1-c1ccc(F)cc1 [Compound 2, N^1-((3-(4-fluorophenyl)-1H-pyrazol-4-yl)methyl)-N^1,N^2-dimethylethane-1,2-diamine] | 7.02 | 7.24 | 
2 | CNCCN(C)Cc1cn(CCCC(O)CO)nc1-c1ccc(F)cc1 (stereo not drawn) [Compound 30] | 6.25 | 5.45 | 
3 | CNCCN(C)Cc1cnn(CCCC(O)CO)c1-c1ccc(F)cc1 (stereo not drawn) [Compound 31] | 6.96 | 6.11 | 
4 | CNCCN(C)Cc1c[nH]nc1-c1ccc(Oc2ccccc2)cc1 [Compound 37] | 8.48 | 8.56 | 
5 | CNCCN(C)Cc1c[nH]nc1-c1ccccc1C(F)(F)F [Compound 38] |  | 5.74 | 6.45
6 | CNCCN(C)Cc1c[nH]nc1-c1ccc(C(=O)c2ccccc2)cc1 [Compound 45] |  | 8.08 | 8.12
7 | CNCCN(C)Cc1c[nH]nc1-c1ccccc1-c1ccccc1 [Compound 46] |  | 5.60 | 5.49
8 | CNCCN(C)Cc1c[nH]nc1-c1ccc(OC)cc1OC [Compound 55] |  | 6.72 | 7.06
9 | CNCCN(C)Cc1c[nH]nc1-c1c(OC)cccc1OC [Compound 56] |  | 5.23 | 5.72
10 | CNCCN(C)Cc1c[nH]nc1-c1cccc2ccccc12 [Compound 57] | 7.99 | 8.15 | 
11 | CNCCN(C)Cc1cn(CCC(O)CO)nc1-c1ccc(F)cc1 (stereo not drawn) [Compound 59] | 6.20 | 5.23 | 
12 | CCN(CCN)Cc1c[nH]nc1-c1ccc(F)cc1 [Compound 62] | 8.10 | 7.86 | 
13 | CCCN(CCN)Cc1c[nH]nc1-c1ccc(F)cc1 [Compound 63] | 5.94 | 5.81 | 
14 | CN(CCN)Cc1cnn(CCO)c1-c1ccc(F)cc1 [Compound 65] | 6.37 | 5.71 | 
15 | CN(CCN)Cc1cn(CCO)nc1-c1ccc(F)cc1 [Compound 66] | 5.98 | 5.62 | 
16 | CN(CCN)Cc1c[nH]nc1-c1ccc(C#N)cc1 [Compound 68] | 8.17 | 8.22 | 
17 | CNCCN(C)Cc1c[nH]nc1-c1cc(C(C)C)cc(C(C)C)c1 [Compound 229, N^1-((3-(3,5-diisopropylphenyl)-1H-pyrazol-4-yl)methyl)-N^1,N^2-dimethylethane-1,2-diamine] | 6.70 | 7.22 | 

Row | SMILES | pIC50 [1, 3] | pIC50 [2] | pIC50 [1, 4]
18 | CNCCN(C)Cc1c[nH]nc1-c1ccc(Oc2ccccc2)c(C(=O)N(C)C)c1 [Compound 233] | 7.74 | 7.53 | 
19 | CC(C)Cc1cccc(-c2n[nH]cc2CN(C)CCN)c1 [Compound 235] | 6.75 | 8.08 | 
20 | CNCCN(C)Cc1c[nH]nc1-c1ccc(OCCCO)cc1 [Compound 236] | 7.83 | 8.04 | 
21 | CNCCN(C)Cc1n[nH]cc1-c1ccc(Oc2cccc(OC)c2)cc1 [Compound 239] | 9.00 | 8.60 | 
22 | CNCCN(C)Cc1n[nH]cc1-c1ccc(Oc2ccccc2)c(C(=O)NC)c1 [Compound 240] | 7.84 | 7.42 | 
23 | CNCCN(C)Cc1n[nH]cc1-c1ccc(Oc2ccccc2)c(C(=O)N(C)C)c1 [Compound 241] | 7.47 | 7.28 | 
24 | CNCCN(C)Cc1n[nH]cc1-c1cc(C(C)C)cc(C(C)C)c1 [Compound 242] | < 6.00 | 6.43 | 
25 | CNCCN(C)Cc1cn(C)nc1-c1ccc(OC(C)C)cc1 [Compound 243, N^1-((3-(4-isopropoxyphenyl)-1-methyl-1H-pyrazol-4-yl)methyl)-N1,N2-dimethylethane-1,2-diamine] | 6.54 | 7.75 | 
26 | CNCCN(C)Cc1cn(Cc2ccncc2)nc1-c1ccc(OC(C)C)cc1 [Compound 245] | 6.65 | 7.45 | 
27 | CNCCN(C)Cc1cn(Cc2cccnc2)nc1-c1ccc(OC(C)C)cc1 [Compound 246] | 6.50 | 7.21 | 
28 | CNCCN(C)Cc1cn(Cc2ccccn2)nc1-c1ccc(OC(C)C)cc1 [Compound 247] | 6.09 | 6.83 | 
29 | CNCCN(C)Cc1cn(CC(=O)OC)nc1-c1ccc(OC(C)C)cc1 [Compound 248] | 6.08 | 6.67 | 
30 | CNCCN(C)Cc1cnn(CC(=O)OC)c1-c1ccc(OC(C)C)cc1 [Compound 249] | 6.37 | 6.96 | 
31 | CNCCN(C)Cc1cn(CC(=O)O)nc1-c1ccc(OC(C)C)cc1 [Compound 250] | 5.37 | 6.13 | 
32 | CNCCN(C)Cc1cn(CC(N)=O)nc1-c1ccc(OC(C)C)cc1 [Compound 251] | 5.62 | 6.56 | 
33 | CCn1ncc(CN(C)CCNC)c1-c1ccc(OC(C)C)cc1 [Compound 252] | 6.99 | 7.59 | 

Now from value to molecule, other results behind:

Row | pIC50 [1, 3] | pIC50 [2] | SMILES | pIC50 [1, 4]
34 | 8.11 | 8.39 | CCCc1ccc(-c2n[nH]cc2CN(C)CCNC)cc1 [Compound 20] | 
35 | 7.91 | 7.24 | CNCCN(C)Cc1c[nH]nc1-c1cccc([N+](=O)[O-])c1 [Compound 21] | 
36 | 7.93 | 6.78 | CNCCN(C)Cc1c[nH]nc1-c1cccc(C#N)c1 [Compound 22] | 
37 | 6.74 | 6.71 | CNCCN(C)Cc1c[nH]nc1-c1ccccc1OC [Compound 23] | 
38 | 7.58 | 7.07 | CNCCN(C)Cc1c[nH]nc1-c1cccc(OC)c1 [Compound 24] | 
39 | 7.96 | 7.68 | CNCCN(C)Cc1c[nH]nc1-c1ccc(OC)cc1 [Compound 25] | 
40 | 7.65 | 6.71 | CNCCN(C)Cc1c[nH]nc1-c1cccc(O)c1 [Compound 26] | 
41 | 7.73 | 7.01 | CNCCN(C)Cc1c[nH]nc1-c1ccc(O)cc1 [Compound 27] | 
42 | 8.04 | 7.95 | CNCCN(C)Cc1c[nH]nc1-c1ccc(CO)cc1 [Compound 28] | 
43 | 7.21 | 6.75 | CNCCN(C)Cc1c[nH]nc1-c1ccc(C)cc1C [Compound 29] | 
44 | 7.42 | 6.82 | CNCCN(C)Cc1c[nH]nc1-c1ccc(N)cc1 [Compound 33] | 
45 | 7.28 | 6.47 | CCNC(=O)c1cccc(-c2n[nH]cc2CN(C)CCNC)c1 [Compound 43] | 
46 | 7.41 | 6.78 | CNCCN(C)Cc1c[nH]nc1-c1ccc(F)cc1F [Compound 49] | 
47 | 7.37 | 6.83 | CNCCN(C)Cc1c[nH]nc1-c1cc(F)ccc1F [Compound 50] | 
48 | 8.00 | 7.89 | CNCCN(C)Cc1c[nH]nc1-c1ccc(F)c(F)c1 [Compound 51] | 
49 | 8.05 | 7.90 | CNCCN(C)Cc1c[nH]nc1-c1ccc(OC)c(F)c1 [Compound 52] | 
50 | 8.21 | 8.24 | CNCCN(C)Cc1c[nH]nc1-c1ccc2ccccc2c1 [Compound 58] | 
51 | 8.66 | 8.46 | CNCCN(C)Cc1c[nH]nc1-c1ccc(Oc2cccc(OC)c2)cc1 [Compound 230] | 
52 | 8.53 | 8.39 | CNCCN(C)Cc1c[nH]nc1-c1ccc(Oc2cccc(F)c2)cc1 [Compound 231] | 
53 | 7.78 | 7.60 | CNCCN(C)Cc1c[nH]nc1-c1ccc(Oc2ccccc2)c(C(=O)NC)c1 [Compound 232] | 
54 | 8.67 | 8.69 | CNCCN(C)Cc1c[nH]nc1-c1ccc(Oc2ccccc2F)cc1 [Compound 237] | 
